Measurements reported in patent EP4741383A1, “COMPOUND AND USE THEREOF AS ANTI-CANCER DRUG” (Tyligand Bioscience (Shanghai) Limited, priority 2023, dated 2025).

Assays:
KYSE520 = assay: CellTiter-Glo cell proliferation inhibition, KYSE520; format: cell-based, human; details: Homo sapiens, KYSE-520; KYSE520 cells, 120 hours, CellTiter-Glo
Source text: In this study, the CellTiter-Glo® Luminescent Cell Viability Assay kit from Promega was used to evaluate the inhibitory effects of the disclosed compounds on the proliferation of cell lines KYSE520 (a human esophageal squamous cell carcinoma cell line dependent on SHP2 for growth), MeWo (a human malignant melanoma cell line), and MV4-11 (an RTK-mutant human acute monocytic leukemia cell line).
KYSE520 cells (Nanjing Kebaio Biotechnology Co., Ltd., Catalog #CBP60658) were thawed by rapidly shaking the cryovial in a 37 °C water bath to thaw within 1 minute. The thawed cell suspension was mixed homogeneously with RPMI 1640 medium (HyClone, Catalog #SH30027.01) containing 10% FBS (ExCell, Catalog #FND500), centrifuged at 1000 rpm for 5 minutes, and the supernatant was discarded. The cell pellet was resuspended in 5 mL of complete culture medium (RPMI 1640 medium containing 10% FBS) and placed in a cell culture flask with 25 cm^2 of bottom area, then cultured in a cell culture incubator at 37 °C, 95% humidity, and 5% CO2. Cell passaging was performed when the cell confluence reached approximately 80%. During cell passaging, the old culture medium was discarded, the cells were washed once with DPBS (Thermo Fisher, Catalog #14190-144), and 1 mL of trypsin (Thermo Fisher, Catalog #25200072) was added to digest the cells. When the cells dispersed into single cells and detached from the bottom of the culture flask, 3 mL of fresh complete culture medium was added to stop the digestion. After gently pipetting the cell suspension, 1/5 of the cell suspension was retained, 5 mL of fresh complete culture medium was added, and after mixing, the cells were placed in a cell culture flask for further culture. Cell plating was performed when the cell confluence again reached approximately 80%. During cell plating, following the cell passaging method, 1/5 of the cell suspension was retained for continued culture, and the remaining 4/5 of the cell suspension was placed in a 15 mL centrifuge tube. Cell viability was determined using the trypan blue exclusion method to ensure that cell viability was above 90%. A cell suspension with a density of 2.22 × 10^4 cells/mL was prepared using complete culture medium, and 135 µL of the cell suspension was added to a 96-well transparent flat-bottom black-walled cell culture plate (Greiner, Catalog #655090), resulting in a cell density of 3000 viable cells per well. A control group containing only complete culture medium without cells and compounds (i.e., culture medium control) and a control group containing cells but no compound (i.e., cell control) were set up. The cell plates were incubated overnight in a cell culture incubator. First, a 10 mM stock solution of the compound (Example compound and positive control compound 11a-1) in DMSO (Damas-beta, catalog #75927R) was serially diluted 3-fold to the 9th concentration, and a 10th concentration containing only DMSO (without compound) was also prepared as a control. Then, the DMSO solutions containing different concentrations of the compound were diluted 100-fold with complete culture medium, resulting in a 1% DMSO concentration in each solution. Finally, 15 µL of each solution was added to the corresponding wells of the cell culture plate, resulting in a starting compound concentration of 10 µM, with a 3-fold dilution between adjacent concentrations, and a final DMSO concentration of 0.1% in the cell culture plate. The cell plates were then incubated in the cell culture incubator for another 120 hours.
For endpoint detection, CellTiter-Glo reagent (Promega, catalog number #G7573, CellTiter-Glo® Luminescent Cell Viability Assay Kit) was melt and each cell plate was moved to room temperature for equilibration for 30 minutes. 75 µL (KYSE520 cells) or 50 µL (MeWo cells and MV 4-11 cells) of CellTiter-Glo was added to each well of the corresponding cell plate. The plates were shaken on a track-mounted shaker for 2 minutes to fully lyse the cells. […]

[1] = molecular target: T1, SHP2 enzyme (catalytic domain, amino acid sequence 224-528) (Homo sapiens, UniProt Q06124); assay: SHP2 enzyme inhibition assay (DiFMUP substrate, fluorescence); format: biochemical; details: for IC50: SHP2 catalytic domain, DiFMUP substrate, 30 min pre-incubation, read-out: S HP2 I C50; for SHP2 IC50 times lower than control compound 11a-1: relative to 11a-1, IC50 = 0.108 µM
T1 construct: purchased GenScript
T1 sequence (Q06124 224-528): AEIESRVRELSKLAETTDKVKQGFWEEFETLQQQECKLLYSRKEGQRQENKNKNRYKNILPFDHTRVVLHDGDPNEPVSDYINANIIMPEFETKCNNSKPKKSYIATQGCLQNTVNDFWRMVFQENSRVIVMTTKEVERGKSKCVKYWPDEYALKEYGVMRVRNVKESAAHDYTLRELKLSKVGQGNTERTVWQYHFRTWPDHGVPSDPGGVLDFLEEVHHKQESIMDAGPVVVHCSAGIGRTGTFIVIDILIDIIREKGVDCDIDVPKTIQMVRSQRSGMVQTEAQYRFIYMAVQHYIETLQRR
How it was run: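 SHP2 catalytic domain (aa 224-528) preincubated 30 min at room temperature with compounds (10-point 3-fold series) in HEPES pH 7.2 buffer with NaCl, EDTA, DTT, BSA, Brij35. DiFMUP from 50 µM working solution added, 5 min reaction; fluorescence 340/450 nm; IC50 from nonlinear dose-response fit.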

SMILES: CC(O)C1CCN(c2ccc(NC(=O)C(=O)Nc3ccc(-c4cc5cc(F)c(-c6nnn[nH]6)cc5n4C4CCC4)cc3)cc2)CC1 (stereo not shown) [Example 29]
- IC50 (KYSE520): 0.076 µM
- IC50 [1]: 48 nM

SMILES: CC(C)(O)C1CCN(c2ccc(NC(=O)C(=O)Nc3ccc(-c4cc5cc(F)c(-c6nnn[nH]6)cc5n4C4CCC4)cc3)cc2)CC1 [Example 33]
- IC50 (KYSE520): 0.042 µM
- IC50 [1]: 41 nM

SMILES: CC1(n2c(-c3ccc(NC(=O)C(=O)Nc4ccc(N5CCC6(CCOC6)CC5)cc4)cc3)cc3cc(F)c(-c4nnn[nH]4)cc32)CC1 [Example 70]
- IC50 (KYSE520): 0.085 µM
- IC50 [1]: 50 nM

SMILES: O=C(Nc1ccc(-c2cc3cc(F)c(-c4nnn[nH]4)cc3n2C2CCC2)cc1)C(=O)Nc1ccc(N2CCC3(CCOC3)CC2)cc1 [Example 67]
- IC50 (KYSE520): 0.086 µM
- IC50 [1]: 34 nM
- SHP2 IC50 times lower than control compound 11a-1 [1]: 3-4 times

SMILES: O=C(Nc1ccc(-c2oc3cc(F)c(-c4nnn[nH]4)cc3c2C2CCC2)cc1)C(=O)Nc1ccc(N2CCC3(CCOC3)CC2)cc1 [Example 125]
- IC50 (KYSE520): 0.68 µM
- IC50 [1]: 51 nM

SMILES: CC1(n2c(-c3ccc(NC(=O)C(=O)Nc4ccc(-c5cnn(C6CCOCC6)c5)cc4)cc3)cc3cc(F)c(-c4nnn[nH]4)cc32)CC1 [Example 7]
- IC50 (KYSE520): 0.071 µM
- IC50 [1]: 49 nM

SMILES: O=C(Nc1ccc(-c2ccsc2)cc1)C(=O)Nc1ccc(-c2sc3cc(F)c(-c4nnn[nH]4)cc3c2C2CCC2)cc1 [Example 133]
- IC50 (KYSE520): 0.688 µM
- IC50 [1]: 69 nM

SMILES: O=C(Nc1ccc(-c2cc3cc(F)c(-c4nnn[nH]4)cc3n2C2CCC2)cc1)C(=O)Nc1ccc(N2CC3CC(O)CC3C2)cc1 (stereo not shown) [Example 116]
- IC50 (KYSE520): 0.092 µM
- IC50 [1]: 63 nM

SMILES: O=C(Nc1ccc(-c2cc3cc(F)c(-c4nnn[nH]4)cc3n2C2CCC2)cc1)C(=O)Nc1ccc(N2CCC(CCO)CC2)cc1 [Example 25]
- IC50 (KYSE520): 0.056 µM
- IC50 [1]: 59 nM

SMILES: O=C(Nc1ccc(-c2cc3cc(F)c(-c4nnn[nH]4)cc3n2C2CCC2)cc1)C(=O)Nc1ccc(N2CCC3(CCOC3)C2)cc1 (stereo not shown) [Example 61]
- IC50 (KYSE520): 0.126 µM
- IC50 [1]: 41 nM

SMILES: O=C(Nc1ccc(-c2csc(CO)c2)cc1)C(=O)Nc1ccc(-c2cc3cc(F)c(-c4nnn[nH]4)cc3n2C2CCC2)cc1 [Example 1]
- IC50 (KYSE520): 0.095 µM
- IC50 [1]: 66 nM

SMILES: COC1CC(n2c(-c3ccc(NC(=O)C(=O)Nc4ccc(N5CCC6(CCC(O)C6)CC5)cc4)cc3)cc3cc(F)c(-c4nnn[nH]4)cc32)C1 (stereo not shown) [Example 103]
- IC50 (KYSE520): 0.042 µM
- IC50 [1]: 141 nM

SMILES: CC1(n2c(-c3ccc(NC(=O)C(=O)Nc4ccc(N5CCC6(CCC(O)CC6)CC5)cc4)cc3)cc3cc(F)c(-c4nnn[nH]4)cc32)CCC1 [Example 109]
- IC50 (KYSE520): 0.107 µM
- IC50 [1]: 61 nM

SMILES: O=C(Nc1ccc(-c2cc3cc(F)c(-c4nnn[nH]4)cc3n2C2CCC2)cc1)C(=O)Nc1ccc(N2CCC3(COC3)C2)cc1 [Example 59]
- IC50 (KYSE520): 0.119 µM
- IC50 [1]: 62 nM

SMILES: O=C(Nc1ccc(-c2cc3cc(F)c(-c4nnn[nH]4)cc3n2C2CC2)cc1)C(=O)Nc1ccc(N2CCC3(CCOC3)CC2)cc1 [Example 69]
- IC50 (KYSE520): 0.189 µM
- IC50 [1]: 46 nM

SMILES: O=C(Nc1ccc(-c2cc3cc(F)c(-c4nnn[nH]4)cc3n2C2CCC2)cc1)C(=O)Nc1ccc(N2CCOCC2)cc1 [Example 47]
- IC50 [1]: 63 nM

SMILES: Cn1cc(-c2ccc(NC(=O)C(=O)Nc3ccc(-c4cc5cc(F)c(-c6nnc(C(F)(F)F)[nH]6)cc5n4C4CCC4)cc3)cc2)cn1 [Example 124]
- IC50 (KYSE520): 0.661 µM
- IC50 [1]: 716 nM

SMILES: O=C(Nc1ccc(-c2cc3cc(F)c(-c4nnn[nH]4)cc3n2C2CCC2)cc1)C(=O)Nc1ccc(N2CCC3(CCC(O)C3)C2)cc1 (stereo not shown) [Example 92]
- IC50 (KYSE520): 0.13 µM
- IC50 [1]: 51 nM

SMILES: O=C(Nc1ccc(-c2cc3cc(F)c(-c4nnn[nH]4)cc3n2C2CCC2)cc1)C(=O)Nc1ccc(N2CCC(CO)C2)cc1 (stereo not shown) [Example 12]
- IC50 (KYSE520): 0.121 µM
- IC50 [1]: 48 nM

SMILES: O=C(Nc1ccc(-c2cc3cc(F)c(-c4nnn[nH]4)cc3n2C2CCC2)cc1)C(=O)Nc1ccc(N2CCC(CO)CC2)cc1 [Example 23]
- IC50 [1]: 102 nM

SMILES: CC1(CO)CCN(c2ccc(NC(=O)C(=O)Nc3ccc(-c4cc5cc(F)c(-c6nnn[nH]6)cc5n4C4CCC4)cc3)cc2)C1 (stereo not shown) [Example 16]
- IC50 (KYSE520): 0.151 µM
- IC50 [1]: 48 nM

SMILES: O=C(Nc1ccc(-c2cc3cc(F)c(-c4nnn[nH]4)cc3n2C2CCC2)cc1)C(=O)Nc1ccc(N2CCC3(CCC(O)CC3)CC2)cc1 [Example 108]
- IC50 (KYSE520): 0.167 µM
- IC50 [1]: 30 nM
- SHP2 IC50 times lower than control compound 11a-1 [1]: 3-4 times

SMILES: CC1(O)CC2CN(c3ccc(NC(=O)C(=O)Nc4ccc(-c5cc6cc(F)c(-c7nnn[nH]7)cc6n5C5CCC5)cc4)cc3)CC2C1 (stereo not shown) [Example 117]
- IC50 (KYSE520): 0.104 µM
- IC50 [1]: 71 nM

SMILES: O=C(Nc1ccc(-c2ccsc2)cc1)C(=O)Nc1ccc(-c2cc3cc(F)c(-c4nnn[nH]4)nc3n2C2CCC2)cc1 [Example 132]
- IC50 (KYSE520): 1.1 µM
- IC50 [1]: 27 nM

SMILES: O=C(Nc1ccc(-c2cc3cc(F)c(-c4nnn[nH]4)cc3n2C2CCC2)cc1)C(=O)Nc1ccc(N2CCC3(CCCOC3)CC2)cc1 [Example 74]
- IC50 (KYSE520): 0.116 µM
- IC50 [1]: 65 nM

SMILES: O=C(Nc1ccc(-c2ccsc2)cc1)C(=O)Nc1ccc(-c2cc3cc(F)c(-c4nnn[nH]4)c(F)c3n2C2CCC2)cc1 [Example 134]
- IC50 (KYSE520): 0.334 µM
- IC50 [1]: 69 nM

SMILES: O=C(Nc1ccc(-c2ccsc2)cc1)C(=O)Nc1ccc(-c2cc3cnc(-c4nnn[nH]4)nc3n2C2CCC2)cc1 [Example 131]
- IC50 [1]: 26 nM

SMILES: N#CCc1cc(-c2ccc(NC(=O)C(=O)Nc3ccc(-c4cc5cc(F)c(-c6nnn[nH]6)cc5n4C4CCC4)cc3)cc2)cs1 [Example 2]
- IC50 (KYSE520): 0.141 µM
- IC50 [1]: 64 nM

SMILES: O=C(Nc1ccc(-c2cc3cc(F)c(-c4nnn[nH]4)cc3n2C2CCC2)cc1)C(=O)Nc1ccc(N2CC3(CCOCC3)C2)cc1 [Example 57]
- IC50 (KYSE520): 0.164 µM
- IC50 [1]: 68 nM

SMILES: Cn1cc(-c2ccc(NC(=O)C(=O)Nc3ccc(-c4cc5cc(F)c(-c6noc(=O)[nH]6)cc5n4C4CCC4)cc3)cc2)cn1 [Example 123]
- IC50 (KYSE520): 0.243 µM
- IC50 [1]: 141 nM

SMILES: CC1(n2c(-c3ccc(NC(=O)C(=O)Nc4ccc(N5CCC6(CCC(O)C6)CC5)cc4)cc3)cc3cc(F)c(-c4nnn[nH]4)cc32)CCC1 (stereo not shown) [Example 101]
- IC50 (KYSE520): 0.128 µM
- IC50 [1]: 23 nM
- SHP2 IC50 times lower than control compound 11a-1 [1]: 3-4 times

SMILES: O=C(Nc1ccc(-c2ccsc2)cc1)C(=O)Nc1ccc(-c2cc3ccc(-c4nnn[nH]4)cc3n2C2CCC2)cc1 [Example 122]
- IC50 (KYSE520): 4.36 µM
- IC50 [1]: 66 nM

SMILES: O=C(Nc1ccc(-c2cc3cc(F)c(-c4nnn[nH]4)cc3n2C2CCC2)cc1)C(=O)Nc1ccc(N2CCC(CCO)C2)cc1 (stereo not shown) [Example 14]
- IC50 (KYSE520): 0.113 µM
- IC50 [1]: 45 nM

SMILES: O=C(Nc1ccc(-c2cc3cc(F)c(-c4nnn[nH]4)cc3n2C2CCC2)cc1)C(=O)Nc1ccc(N2CCC3(CC2)CC(CO)C3)cc1 [Example 96]
- IC50 (KYSE520): 0.059 µM
- IC50 [1]: 58 nM

SMILES: O=C(Nc1ccc(-c2ccsc2)cc1)C(=O)Nc1ccc(-c2cc3cc(F)c(-c4nnn[nH]4)cc3n2C2CCC2)cc1 [Example 4]
- IC50 [1]: 29 nM
- SHP2 IC50 times lower than control compound 11a-1 [1]: 3-4 times
